{"source": "patent US20100063049A1", "about": "“2-CARBOCYCLOAMINO-4-IMIDAZOLYLPYRIMIDINES AS AGENTS FOR THE INHBITION OF CELL PROLIFERATION” (priority 2006, published 2010)", "target": "T1, CDK2/Cyclin E (Homo sapiens, UniProt P24941)", "T1 construct": "The open reading frames of CDK2 and Cyclin E were isolated by reverse transcriptase-PCR; made in house; host or cells: Spodoptera frugiperda SF21 insect cells (baculovirus co-infection); GST-Rb substrate made in E. coli BL21(DE3) pLysS", "experiment": "in vitro kinase assay (Scintillation Proximity Assay), incorporation of [γ-33-P]-ATP into GST-Rb", "type": "biochemical", "settings": "CDK2/Cyclin E partially-purified enzyme, GST-Rb substrate, 0.2 μM ATP, room temperature 60 mins; read-out: CDK2 inhibitory activity IC50", "protocol": "The compounds were tested in an in vitro kinase assay in 96 well format using Scintillation Proximity Assay (SPA—obtained from Amersham) for measuring incorporation of [γ-33-P]-Adenosine Triphosphate into a test substrate (GST-Retinoblastoma protein; GST-Rb). In each well was placed the compound to be tested (diluted in DMSO and water to correct concentrations) and in control wells either roscovitine as an inhibitor control or DMSO as a positive control. […]\nThe plates were sealed with Topseal-S plate sealers, left for two hrs then spun at 2500 rpm, 1124×g., for 5 mins. The plates were read on a Topcount for 30 seconds per well. […]\nE. coli paste was resuspended in 10 ml/g of NETN buffer (50 mM Tris pH 7.5, 120 mM NaCl, 1 mM EDTA, 0.5% v/v NP-40, 1 mM PMSF, 1 ug/ml leupeptin, 1 ug/ml aprotinin and 1 ug/ml pepstatin) and sonicated for 2×45 seconds per 100 ml homogenate. […] The final product was analysed by Sodium Dodeca Sulfate (SDS) PAGE (Polyacrylamide gel) using 8-16% Tris-Glycine gels (Novex, San Diego, USA).\nThe open reading frames of CDK2 and Cyclin E were isolated by reverse transcriptase-PCR using HeLa cell and activated T cell mRNA as a template and cloned into the insect expression vector pVL1393 (obtained from Invitrogen 1995 catalogue number: V1392-20). […]"}
{"smiles": "Cc1ncc(-c2ccnc(N[C@H]3CC[C@H](N(C)C)CC3)n2)n1C(C)C", "note": "[Example 4, trans-N′,N′-Dimethyl-N-[4-(2-methyl-3-propan-2-yl-imidazol-4-yl)pyrimidin-2-yl]cyclohexane-1,4-diamine]", "values": [{"measurement": "IC50", "result": 159, "unit": "nM"}]}
